From patent publication US20070128217A1 (priority 2003, published 2007)

What was measured:
[1] = tested on: antibodies in sera from SARS patients (sera 1a, 1b, 2, 6, 37, 62, London, SARS-yellow, SARS-green); format: binding, human; design: Binding of serum 6 to linear peptides of protein X1 of SARS-CoV Urbani / Binding of serum 37 to linear peptides of protein X1 of SARS-CoV Urbani / Binding of serum 6 to looped/cyclic peptide (PEPSCAN-ELISA) / Binding of serum 37 to looped/cyclic peptide (PEPSCAN-ELISA) / Binding of serum 37 to looped/cyclic peptides of protein X1 of SARS-CoV Urbani / Binding of serum 6 to linear peptides of protein X2 / Binding of serum 37 to linear peptides of protein X2 / Binding of serum 37 to looped/cyclic peptides of protein X2 of SARS-CoV Urbani / Binding of serum 6 to linear peptides of protein M of SARS-CoV Urbani / Binding of serum 37 to linear peptides of protein M of SARS-CoV Urbani / Binding of serum 6 to looped/cyclic peptides of protein M of SARS-CoV Urbani / Binding of serum 37 to looped/cyclic peptides of protein M of SARS-CoV Urbani / Binding of serum 6 to linear peptides of protein X3 of SARS-CoV Urbani / Binding of serum 37 to linear peptides of protein X3 of SARS-CoV Urbani / Binding of serum 37 to looped/cyclic peptides of protein X3 of SARS-CoV Urbani / Binding of serum 6 to linear peptides of protein X4 of SARS-CoV Urbani / Binding of serum 37 to linear peptides of protein X4 of SARS-CoV Urbani / Binding of serum 37 to looped/cyclic peptides of protein X4 of SARS-CoV Urbani / Binding of serum 6 to linear peptides of protein X5 of SARS-CoV Urbani / Binding of serum 37 to linear peptides of protein X5 of SARS-CoV Urbani / Binding of serum 37 to looped/cyclic peptides of protein X5 of SARS-CoV Urbani / Binding of serum 6 to linear peptides of protein N of SARS-CoV Urbani / Binding of serum 37 to linear peptides of protein N of SARS-CoV Urbani / Binding of serum 6 to linear peptide (PEPSCAN-ELISA) / Binding of serum 1a to looped/cyclic peptides of protein N of SARS-CoV Urbani / Binding of serum 1b to looped/cyclic peptides of protein N of SARS-CoV Urbani / Binding of serum 2 to looped/cyclic peptides of protein N of SARS-CoV Urbani / Binding of serum 6 to looped/cyclic peptides of protein N of SARS-CoV Urbani / Binding of serum 37 to looped/cyclic peptides of protein N of SARS-CoV Urbani / Binding of serum 62 to looped/cyclic peptides of protein N of SARS-CoV Urbani / Binding of serum London to looped/cyclic peptides of protein N of SARS-CoV Urbani / Binding of serum SARS-green to looped/cyclic peptides of protein N of SARS-CoV Urbani: unit not given here
[2] = tested on: control sera (pooled serum of ten healthy LUMC hospital workers; commercial negative donor pooled serum from the Dutch bloodbank); format: binding, human; design: Binding of Control serum LUMC to linear peptides / Binding of Control serum Blood-bank to linear peptides / Binding of Control serum LUMC to looped peptides / Binding of Control Serum Blood-Bank to Looped peptides / Binding of Control serum LUMC to linear peptides of the protein M of SARS-CoV Urbani / Binding of Control serum Blood-bank to linear peptides of the protein M of SARS-CoV Urbani / Binding of Control serum LUMC to looped peptides of the protein M of SARS-CoV Urbani / Binding of Control Serum Blood-Bank to Looped peptides of the protein M of SARS-CoV Urbani: unit not given here
[3] = tested on: rabbit serum obtained by immunizing a rabbit with the SARS-CoV strain Frankfurt 1; format: binding; design: Binding of a rabbit serum to linear peptides / Binding of a rabbit serum to looped peptides / Rabbit serum linear peptides / Rabbit serum looped peptides / Binding of a rabbit serum to linear peptides of protein N of SARS-CoV Urbani (Rabbit serum linear peptides) / Binding of a rabbit serum to looped/cyclic peptides of protein N of SARS-CoV Urbani (Rabbit serum looped peptides): unit not given here

Sequence	Binding of serum 1a to linear peptides of protein X2 [1]	Binding of serum 1a to looped/cyclic peptides of protein X2 of SARS-CoV Urbani [1]	Binding of serum 1b to linear peptides of protein X2 [1]	Binding of serum 1b to looped/cyclic peptides of protein X2 of SARS-CoV Urbani [1]	Binding of serum 2 to linear peptides of protein X2 [1]	Binding of serum 2 to looped/cyclic peptides of protein X2 of SARS-CoV Urbani [1]	Binding of serum 6 to linear peptides of protein X2 [1]	Binding of serum 6 to looped/cyclic peptides of protein X2 of SARS-CoV Urbani [1]	Binding of serum 37 to linear peptides of protein X2 [1]	Binding of serum 37 to looped/cyclic peptides of protein X2 of SARS-CoV Urbani [1]	Binding of serum 62 to looped/cyclic peptides of protein X2 of SARS-CoV Urbani [1]	Binding of serum London to looped/cyclic peptides of protein X2 of SARS-CoV Urbani [1]	Binding of serum SARS-green to looped/cyclic peptides of protein X2 of SARS-CoV Urbani [1]	Binding of serum SARS-yellow to looped/cyclic peptides of protein X2 of SARS-CoV Urbani [1]	Binding of Control Serum Blood-Bank to Looped peptides [2]	Binding of Control serum Blood-bank to linear peptides [2]	Binding of Control serum LUMC to linear peptides [2]	Binding of Control serum LUMC to looped peptides [2]	Binding of a rabbit serum to linear peptides [3]	Binding of a rabbit serum to looped peptides [3]	also measured
SSSLTSLLKTHRMCK	0.6	0.3	0.5	0.4	0.4	0.1	0.8	0.1	0.6	0.2	0.3	0.1	0.3	0.5	0.4	1.0	0.7	0.4	0.3	0.2	Binding of serum 62 to linear peptides of protein X2 [1]: 0.7; Binding of serum London to linear peptides of protein X2 [1]: 0.6; Binding of serum SARS-green to linear peptides of protein X2 [1]: 0.6; Binding of serum SARS-yellow to linear peptides of protein X2 [1]: 0.2
STALQELLIQQWIQF	0.6	0.6	0.4	0.5	0.3	0.4	0.3	0.2	0.5	0.4	0.6	0.2	0.3	0.5	0.6	0.6	0.3	0.7	0.3	0.4	Binding of serum 62 to linear peptides of protein X2 [1]: 0.6; Binding of serum London to linear peptides of protein X2 [1]: 0.4; Binding of serum SARS-green to linear peptides of protein X2 [1]: 0.5; Binding of serum SARS-yellow to linear peptides of protein X2 [1]: 0.3
STNLCTHSFRKKQVR		0.5		0.3		0.5		0.6		0.5	0.5	0.2	0.2	0.5	0.5	0.9	0.8	0.8	0.7	0.2	Recognition of the peptide by sera of SARS-CoV infected individuals, and form (linear, looped/cyclic) in which it is recognized [1]: recognized in linear form
STQITTDTGIENATF															0.5	0.5	0.6	0.6	0.1	0.7	Binding of serum 1a to linear peptides of protein X1 of SARS-CoV Urbani [1]: 0.5; Binding of serum 1a to looped/cyclic peptides of protein X1 of SARS-CoV Urbani [1]: 0.6; Binding of serum 1b to linear peptides of protein X1 of SARS-CoV Urbani [1]: 0.4; Binding of serum 1b to looped/cyclic peptides of protein X1 of SARS-CoV Urbani [1]: 0.4; Binding of serum 2 to linear peptides of protein X1 of SARS-CoV Urbani [1]: 0.4; Binding of serum 2 to looped/cyclic peptides of protein X1 of SARS-CoV Urbani [1]: 0.3; Binding of serum 6 to linear peptides of protein X1 of SARS-CoV Urbani [1]: 0.5; Binding of serum 6 to looped/cyclic peptides of protein X1 of SARS-CoV Urbani [1]: 0.3; Binding of serum 37 to linear peptides of protein X1 of SARS-CoV Urbani [1]: 0.6; Binding of serum 37 to looped/cyclic peptides of protein X1 of SARS-CoV Urbani [1]: 0.6; Binding of serum 62 to linear peptides of protein X1 of SARS-CoV Urbani [1]: 0.4; Binding of serum 62 to looped/cyclic peptides of protein X1 of SARS-CoV Urbani [1]: 0.6; Binding of serum London to linear peptides of protein X1 of SARS-CoV Urbani [1]: 0.2; Binding of serum London to looped/cyclic peptides of protein X1 of SARS-CoV Urbani [1]: 0.2; Binding of serum SARS-green to linear peptides of protein X1 of SARS-CoV Urbani [1]: 0.3; Binding of serum SARS-green to looped/cyclic peptides of protein X1 of SARS-CoV Urbani [1]: 0.4; Binding of serum SARS-yellow to linear peptides of protein X1 of SARS-CoV Urbani [1]: 0.2; Binding of serum SARS-yellow to looped/cyclic peptides of protein X1 of SARS-CoV Urbani [1]: 0.4
SYFVASFRLFARTRS																					Binding of serum 1a to linear peptides of protein M of SARS-CoV Urbani [1]: 0.7; Binding of serum 1b to linear peptides of protein M of SARS-CoV Urbani [1]: 0.6; Binding of serum 2 to linear peptides of protein M of SARS-CoV Urbani [1]: 0.5; Binding of serum 6 to linear peptides of protein M of SARS-CoV Urbani [1]: 0.5; Binding of serum 37 to linear peptides of protein M of SARS-CoV Urbani [1]: 0.4; Binding of serum 62 to linear peptides of protein M of SARS-CoV Urbani [1]: 0.4; Binding of serum London to linear peptides of protein M of SARS-CoV Urbani [1]: 0.3; Binding of serum SARS-green to linear peptides of protein M of SARS-CoV Urbani [1]: 0.4; Binding of serum SARS-yellow to linear peptides of protein M of SARS-CoV Urbani [1]: 0.1; Recognition of the peptide by sera of SARS-CoV infected individuals, and form (linear, looped/cyclic) in which it is recognized [1]: recognized in looped/cyclic form; Binding of Control Serum Blood-Bank to Looped peptides of the protein M of SARS-CoV Urbani [2]: 1.0; Binding of Control serum Blood-bank to linear peptides of the protein M of SARS-CoV Urbani [2]: 0.6; Binding of Control serum LUMC to linear peptides of the protein M of SARS-CoV Urbani [2]: 0.5; Binding of Control serum LUMC to looped peptides of the protein M of SARS-CoV Urbani [2]: 0.9; Rabbit serum linear peptides [3]: 0.2; Rabbit serum looped peptides [3]: 0.4
